Reference: paper PMC7880572 (ACS Chemical Neuroscience, 2021)
Where two headings read alike, the source gives them in different places.

What was measured:
Aβ40 [1] = biological target: T1, Aβ40 (Homo sapiens, UniProt P05067); design: method as in PMID 25924599; conditions: first series; cited from earlier work
T1 construct: samples of Aβ40 (30 μM) were coincubated for 2 h at 25 °C with test molecules; purchased EzBiolab, Carmel, IN, USA

AChE = test system: AChE; design: method as in PMID 25924599; conditions: first series; cited from earlier work
in vitro = conditions: PAMPA, pH 7.4
[2] = literature reported PAMPA-BBB permeability; ref 1 (Di et al., 2003); cited from earlier work
MAO B [3] = biological target: T2, MAO B (Homo sapiens, UniProt P27338); assay: MAO B inhibition (fluorimetric kynuramine assay, inhibition kinetics); assay type: biochemical; conditions: for IC50: mean ± SEM, n = 3
T2 construct: purchased Sigma-Aldrich
T2 sequence (P27338 1-520): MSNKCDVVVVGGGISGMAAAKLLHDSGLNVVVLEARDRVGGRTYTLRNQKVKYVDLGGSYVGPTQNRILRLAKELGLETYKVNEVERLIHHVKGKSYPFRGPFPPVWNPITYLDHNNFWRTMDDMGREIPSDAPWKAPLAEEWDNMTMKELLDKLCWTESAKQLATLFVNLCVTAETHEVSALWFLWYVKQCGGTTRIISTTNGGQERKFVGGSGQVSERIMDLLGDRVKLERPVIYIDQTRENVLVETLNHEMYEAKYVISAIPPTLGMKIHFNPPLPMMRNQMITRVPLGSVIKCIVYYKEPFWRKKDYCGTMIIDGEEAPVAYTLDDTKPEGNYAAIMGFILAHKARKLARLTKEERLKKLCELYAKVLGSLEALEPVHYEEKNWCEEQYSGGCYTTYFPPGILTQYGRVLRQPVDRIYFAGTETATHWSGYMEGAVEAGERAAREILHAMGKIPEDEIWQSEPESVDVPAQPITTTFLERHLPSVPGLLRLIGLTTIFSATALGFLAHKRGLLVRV

hMAO A = biological target: T3, hMAO A (Homo sapiens, UniProt P21397); assay: MAO A inhibition (fluorimetric kynuramine assay); assay type: biochemical; conditions: mean ± SEM, n = 3
T3 construct: purchased Sigma-Aldrich
T3 sequence (P21397 1-527): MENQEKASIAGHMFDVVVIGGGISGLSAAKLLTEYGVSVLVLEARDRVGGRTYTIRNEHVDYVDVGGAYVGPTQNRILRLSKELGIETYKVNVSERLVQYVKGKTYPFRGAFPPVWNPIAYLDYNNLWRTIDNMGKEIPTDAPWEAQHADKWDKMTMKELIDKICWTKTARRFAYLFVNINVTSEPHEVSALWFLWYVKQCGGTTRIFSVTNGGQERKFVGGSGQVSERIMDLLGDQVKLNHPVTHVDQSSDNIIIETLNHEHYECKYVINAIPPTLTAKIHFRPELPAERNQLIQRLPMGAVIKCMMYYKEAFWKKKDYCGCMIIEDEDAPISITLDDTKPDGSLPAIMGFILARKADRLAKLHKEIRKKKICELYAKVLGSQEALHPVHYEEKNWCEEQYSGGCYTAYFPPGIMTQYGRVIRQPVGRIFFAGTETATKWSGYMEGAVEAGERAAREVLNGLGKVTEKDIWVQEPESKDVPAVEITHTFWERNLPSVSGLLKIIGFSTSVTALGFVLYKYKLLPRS

Aβ40 [4] = biological target: T1, Aβ40; assay: Inhibition of self-induced Aβ40 aggregation (ThT fluorescence, HFIP); assay type: biochemical; conditions: Aβ40 30 μM, 2 h at 25 °C, PBS 2% HFIP; mean ± SEM, n = 3; read-out: Aβ40 aggr IC50
Description: In vitro inhibition of Aβ40 aggregation was assessed following a previously reported thioflavin T (ThT) fluorescence-based method involving the use of hexafluoroisopropanol (HFIP) as aggregation enhancer. […].
In vitro inhibition assay of Aβ40 aggregation has been previously reported[41] and adapted to a 96-well plate platform.
(§1) After incubation in 96-well black, nonbinding microplates (Greiner Bio-One GmbH, Frickenhausen, Germany), thioflavin T (25 μM) was added and fluorimetric reads (ex 440, em 485 nm) were performed in a multiplate reader Infinite M1000 Pro (Tecan, Cernusco sul Naviglio, Italy). Experiments were run in triplicate. Results were expressed by statistical analysis while IC50 values were obtained by nonlinear regression using Prism software (GraphPad Prism version 5.00 for Windows, GraphPad Software, San Diego, CA, USA).

cerebellar granule cells = assay: In vitro cytotoxicity (MTT); assay type: cell-based; conditions: CGCs, compound 10 μM, 48 h, mean ± SEM
Description: . […] For a more meaningful assessment of the value of the present compounds, the issue of their toxicity, in comparison to established drugs for AD, should deserve further investigation.
Cerebellar granule cells were prepared from 8-day-old Sprague Dawley rats as described previously.[66] Cells were studied from the 6th to the 12th day in vitro. The experimental procedures and care of the animals were performed in compliance with the Directive of the EU Parliament and Council of September 22, 2010 (2010/63/EU) and were approved by the Italian Ministry of Health (COD. 75F11.N.6DX) in accordance with D.M. 116/1992. All efforts were made in order to minimize animal suffering and the number of animals necessary to obtain reliable results.
[…]. Cells were maintained in 5% CO2 at 37 °C. The cell viability was assessed by the MTT assay 48 h after the treatment. […]. The survival rates of viable cells were calculated by comparing the optical absorbance of treated samples with that of the untreated controls. All experiments were repeated at least three times independently, and data are expressed as the mean ± SEM.

PHF6 tau sequence = PHF6 tau sequence (Homo sapiens, UniProt P10636); assay: Inhibition of PHF6 aggregation (ThT fluorescence); conditions: for inhibition at 10 µM: read-out: PHF6 aggregation inhibition
R3 tau sequence = biological target: T4, R3 tau sequence (Homo sapiens, UniProt P10636); assay: Inhibition of R3 aggregation (ThT fluorescence); assay type: biochemical; conditions: R3 25 μM, 4 h at 37 °C; mean of two independent experiments
T4 construct: The 30-amino acid peptide (V306-Q336) R3; purchased Bachem, Bubendorf, Switzerland
Excerpt: . The 30-amino acid peptide (V306-Q336) R3 is a high-repeated domain containing the PHF6 sequence and present in all tau isoforms.[62] Its high propensity to self-aggregate in buffered solutions, even in the absence of aggregation inducers such as heparin,[63] makes R3 a reliable surrogate of full-length tau protein for in vitro experiments. In our assay protocol, the commercial R3 peptide was pretreated with 1,1,1-trifluoroethanol (TFE) overnight in order to dissolve any preformed aggregate and reestablish the random coil arrangement, then diluted in PBS at the test concentration of 25 μM.
A stock solution of 1.5 mM R3 (trifluoroacetate salt; Bachem, Bubendorf, Switzerland) was prepared in TFE and left overnight at room temperature. […] . […] IC50 values were calculated by means of Prism as the mean of two independent experiments.

[5] = based on the PAMPA-BBB classification range from Di et al.
[6] = biological target: T5, eeAChE (AChE from electric eel) (Electrophorus electricus, UniProt O42275); assay: biochemical; conditions: mean ± SEM, n = 3
T5 construct: purchased Sigma-Aldrich, Milan, Italy

Aβ42 = biological target: T6, Aβ42 (Homo sapiens, UniProt P05067); assay: Inhibition of Aβ42 fibrillation by ThT fluorescence assay; assay type: biochemical; conditions: Aβ42 30 μM, 37 °C, 48 h
T6 construct: purchased EzBiolab, Carmel, IN, USA
Description: Its high propensity to self-aggregate allows a fast execution of aggregation assays without the need of aggregation enhancers as for Aβ40.
Quercetin (QUR) was used as reference compound.
as §1

[7] = biological target: T7, esBChE (BChE from equine serum) (Equus caballus, UniProt P81908); assay: biochemical; conditions: mean ± SEM, n = 3
T7 construct: BChE from horse serum (13 U/mL); purchased Sigma-Aldrich, Milan, Italy; host or cells: horse serum

MAO B [8] = biological target: T2, MAO B; assay: MAO B kynuramine assay in spectrophotometric mode (4-hydroxyquinoline absorbance at 316 nm), incl. time course; assay type: biochemical
BChE = test system: BChE; design: method as in PMID 25924599; conditions: first series; cited from earlier work

T5 sequence (O42275 24-633): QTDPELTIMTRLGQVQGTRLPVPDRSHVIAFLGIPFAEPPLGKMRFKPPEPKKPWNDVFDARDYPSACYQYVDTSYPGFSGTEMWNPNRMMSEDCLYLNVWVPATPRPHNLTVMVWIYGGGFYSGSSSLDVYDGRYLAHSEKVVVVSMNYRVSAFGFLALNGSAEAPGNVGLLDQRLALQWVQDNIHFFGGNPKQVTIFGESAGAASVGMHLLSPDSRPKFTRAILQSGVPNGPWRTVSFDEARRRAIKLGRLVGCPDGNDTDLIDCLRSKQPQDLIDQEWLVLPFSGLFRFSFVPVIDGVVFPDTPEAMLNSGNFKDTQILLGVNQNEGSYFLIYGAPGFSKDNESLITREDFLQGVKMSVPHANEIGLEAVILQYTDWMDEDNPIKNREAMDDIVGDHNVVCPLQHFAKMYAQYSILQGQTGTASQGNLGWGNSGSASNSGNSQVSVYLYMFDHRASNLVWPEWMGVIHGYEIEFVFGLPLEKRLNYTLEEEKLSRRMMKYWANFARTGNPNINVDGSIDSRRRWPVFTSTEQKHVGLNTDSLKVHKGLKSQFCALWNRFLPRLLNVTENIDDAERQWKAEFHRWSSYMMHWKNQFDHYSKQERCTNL
T1 sequence (P05067 672-711 limits assumed): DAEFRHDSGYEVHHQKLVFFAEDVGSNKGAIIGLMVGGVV
T7 sequence (P81908 whole entry): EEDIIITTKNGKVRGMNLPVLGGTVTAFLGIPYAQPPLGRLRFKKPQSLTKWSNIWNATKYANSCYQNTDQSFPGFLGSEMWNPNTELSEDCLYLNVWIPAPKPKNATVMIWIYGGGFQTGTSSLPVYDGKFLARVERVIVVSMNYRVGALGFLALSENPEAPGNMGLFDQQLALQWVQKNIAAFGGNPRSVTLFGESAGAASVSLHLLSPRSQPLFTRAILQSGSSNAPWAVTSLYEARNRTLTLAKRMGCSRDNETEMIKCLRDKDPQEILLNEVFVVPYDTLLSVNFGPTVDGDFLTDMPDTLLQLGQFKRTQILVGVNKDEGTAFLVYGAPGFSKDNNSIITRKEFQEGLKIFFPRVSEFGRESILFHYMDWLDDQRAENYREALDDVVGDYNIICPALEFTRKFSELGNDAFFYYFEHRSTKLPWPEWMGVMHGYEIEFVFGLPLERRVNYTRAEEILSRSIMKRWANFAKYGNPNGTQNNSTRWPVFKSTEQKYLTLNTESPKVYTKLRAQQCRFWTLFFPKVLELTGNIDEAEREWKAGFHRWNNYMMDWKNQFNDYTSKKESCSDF
T4 sequence (P10636 623-653 limits assumed): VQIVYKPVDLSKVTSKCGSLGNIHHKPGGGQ
T6 sequence (P05067 672-713 limits assumed): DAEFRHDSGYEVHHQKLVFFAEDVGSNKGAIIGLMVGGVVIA

## O=C1c2ccccc2C(=O)c2c(NC[C@@H]3CCCN4CCCC[C@H]34)cccc21 [IX]
Aβ40 [1]
  IC50: 6.4 µM
AChE
  IC50: 0.84 µM

## Cc1nnc2n1-c1ccc(Cl)cc1C(c1ccccc1)=NC2 [Alprazolam]
In vitro
  Papp: 4.8 ×10⁻⁶ cm/s
[2]
  Pe,rep: 5.4 10-6 cm/s

## O=C1c2ccccc2C(=O)c2c(NCCc3ccccc3)cccc21 [Compound 11, 1-(Phenethylamino)-9,10-anthraquinone]
MAO B [3]
  IC50: 0.57 ± 0.02 µM
In vitro
  Papp at 16 h: 24.7 ± 2.2 ×10⁻⁶ cm/s
hMAO A
  IC50: 3.1 ± 0.3 µM
Aβ40 [4]
  IC50: 2.1 ± 0.2 µM
Cerebellar granule cells
  cell viability vs control (%): 85 ± 15%
PHF6 tau sequence
  IC50: 1.78 ± 0.23 µM
  inhibition at 10 µM: > 95%
R3 tau sequence
  IC50: 0.36 ± 0.02 µM
[5]
  CNS prediction: CNS+
[6]
  IC50: 7.3 ± 0.7 µM
Aβ42; 100 and 5 μM
  inhibition of Aβ42 aggregation (activity profile): best activity profile
[7]
  IC50: 1.7 ± 0.3 µM

## O=C1Nc2ccc(Cl)cc2C(c2ccccc2)=NC1O (stereo not drawn) [Oxazepam]
In vitro
  Papp: 9.1 ×10⁻⁶ cm/s
[2]
  Pe,rep: 10 10-6 cm/s

## O=C1C(Cl)=C(NCc2ccccc2)C(=O)c2ccccc21 [Compound 2]
MAO B [3]; coincubation up to 2 h vs 5 min
  increase of Ki for higher coincubation times: about 20 fold
MAO B [3]; coincubation with enzyme limited to 5 min
  MAO B inhibition mechanism: competitive inhibition
MAO B [3]; higher coincubation times (up to 2 h)
  MAO B inhibition mechanism: noncompetitive
MAO B [3]
  IC50: 0.0077 ± 0.0013 µM
MAO B [3]; ratio of inhibitory activities
  selectivity MAO B versus MAO A: 473 fold
In vitro
  Papp at 16 h: 28.4 ± 2.1 ×10⁻⁶ cm/s
hMAO A
  IC50: 3.6 ± 0.3 µM
Aβ40 [4]
  IC50: 3.2 ± 0.8 µM
Cerebellar granule cells
  cell viability vs control (%): 89 ± 14%
PHF6 tau sequence
  inhibition at 10 µM: 91%
MAO B [8]; 10 nM inhibitor, absorption of 4-hydroxyquinoline at 316 nm
  MAO B enzymatic activity in time course: still present even after 3 h
MAO B [8]; absorbance of 4-hydroxyquinoline at 316 nm
  IC50: 0.018 µM
[5]
  CNS prediction: CNS+
[6]
  IC50: 9.2 ± 0.6 µM
Aβ42; lower concentration used (5 μM)
  inhibition of Aβ42 aggregation: strong inhibitor
[7]
  inhibition at 10 µM: 26%

## O=C1C(Cl)=C(NCCc2ccccc2)C(=O)c2ccccc21 [Compound 3]
MAO B [3]
  IC50: 0.031 ± 0.001 µM
hMAO A; at 10 μM
  inhibition at 10 µM: 41%
Aβ40 [4]
  IC50: 4.4 ± 0.3 µM
PHF6 tau sequence
  IC50: 4.96 ± 0.75 µM
  inhibition at 10 µM: > 95%
R3 tau sequence
  IC50: 1.19 ± 0.44 µM
[6]
  IC50: 7.9 ± 0.8 µM
[7]
  inhibition at 10 µM: 24%

## O=C1C(Cl)=C(NCCCSC[C@@H]2CCCN3CCCC[C@H]23)C(=O)c2ccccc21 [VII]
Aβ40 [1]
  IC50: 61 µM
BChE
  IC50: 4.1 µM

## CCN(CC)CCCNc1cccc2c1C(=O)c1ccccc1C2=O [XIII]
Aβ40 [1]
  IC50: 61 µM
